Test [1] addresses T1, NUAK family SNF1-like kinase 1 (Homo sapiens, UniProt O60285).
T1 sequence (O60285 whole entry): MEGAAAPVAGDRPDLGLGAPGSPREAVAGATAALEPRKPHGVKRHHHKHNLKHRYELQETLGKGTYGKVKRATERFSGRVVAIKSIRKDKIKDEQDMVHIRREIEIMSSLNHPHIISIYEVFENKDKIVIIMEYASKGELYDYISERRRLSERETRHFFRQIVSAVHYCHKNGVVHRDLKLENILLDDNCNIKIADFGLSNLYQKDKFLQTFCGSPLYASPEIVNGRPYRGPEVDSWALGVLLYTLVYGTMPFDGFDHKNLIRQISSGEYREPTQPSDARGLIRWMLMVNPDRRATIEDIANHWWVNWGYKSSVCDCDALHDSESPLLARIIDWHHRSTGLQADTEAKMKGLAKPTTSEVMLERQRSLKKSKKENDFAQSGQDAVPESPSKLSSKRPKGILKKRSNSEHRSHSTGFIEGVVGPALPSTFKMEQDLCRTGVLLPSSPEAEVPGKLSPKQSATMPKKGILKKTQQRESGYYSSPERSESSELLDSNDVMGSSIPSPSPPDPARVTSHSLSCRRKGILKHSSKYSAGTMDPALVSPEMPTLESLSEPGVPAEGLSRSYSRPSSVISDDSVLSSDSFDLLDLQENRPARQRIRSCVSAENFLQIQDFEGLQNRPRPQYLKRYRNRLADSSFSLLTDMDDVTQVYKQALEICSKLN
As to the kind of experiment: Inhibition of ARK5 (unknown origin).

The target of test [2] is Insulin-like growth factor 1 receptor (Homo sapiens, UniProt P08069). As to the kind of experiment: Inhibition of IGF1R (unknown origin).
Test [3] deals with T2, Tyrosine-protein kinase receptor UFO (Homo sapiens, UniProt P30530).
T2 sequence (P30530 whole entry): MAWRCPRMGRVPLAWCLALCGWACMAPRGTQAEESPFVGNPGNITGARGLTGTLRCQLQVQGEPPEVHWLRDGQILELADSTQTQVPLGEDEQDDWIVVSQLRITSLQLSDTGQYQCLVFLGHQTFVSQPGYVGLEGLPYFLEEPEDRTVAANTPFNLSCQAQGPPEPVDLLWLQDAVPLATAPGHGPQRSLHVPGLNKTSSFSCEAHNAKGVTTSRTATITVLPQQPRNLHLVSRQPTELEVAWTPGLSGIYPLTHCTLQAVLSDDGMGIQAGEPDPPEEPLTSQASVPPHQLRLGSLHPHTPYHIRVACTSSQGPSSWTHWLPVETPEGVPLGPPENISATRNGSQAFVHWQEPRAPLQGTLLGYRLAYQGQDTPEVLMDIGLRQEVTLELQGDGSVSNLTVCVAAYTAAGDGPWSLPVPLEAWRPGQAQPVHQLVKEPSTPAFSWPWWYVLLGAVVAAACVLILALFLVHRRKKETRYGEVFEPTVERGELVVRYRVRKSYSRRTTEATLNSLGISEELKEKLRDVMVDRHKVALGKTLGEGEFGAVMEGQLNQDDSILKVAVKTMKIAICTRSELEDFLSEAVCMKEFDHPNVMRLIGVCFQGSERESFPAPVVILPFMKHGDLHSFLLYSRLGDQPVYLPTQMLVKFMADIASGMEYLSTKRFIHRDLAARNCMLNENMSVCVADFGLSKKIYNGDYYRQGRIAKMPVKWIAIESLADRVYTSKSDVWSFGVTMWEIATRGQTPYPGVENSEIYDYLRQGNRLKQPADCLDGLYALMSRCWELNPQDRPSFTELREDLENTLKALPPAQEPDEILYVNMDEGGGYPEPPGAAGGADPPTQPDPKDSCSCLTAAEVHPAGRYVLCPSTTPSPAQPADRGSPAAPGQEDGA
The test can be described thus: Inhibition of AXL (unknown origin).

Test [4] addresses Serine/threonine-protein kinase N1 (Homo sapiens, UniProt Q16512). The test can be described thus: Inhibition of PRK1 (unknown origin).
The target of test [5] is Serine/threonine-protein kinase Nek6 (Homo sapiens, UniProt Q9HC98). As to the kind of experiment: Inhibition of NEK6 (unknown origin).
Sequence of Serine/threonine-protein kinase Nek6 (Q9HC98 whole entry): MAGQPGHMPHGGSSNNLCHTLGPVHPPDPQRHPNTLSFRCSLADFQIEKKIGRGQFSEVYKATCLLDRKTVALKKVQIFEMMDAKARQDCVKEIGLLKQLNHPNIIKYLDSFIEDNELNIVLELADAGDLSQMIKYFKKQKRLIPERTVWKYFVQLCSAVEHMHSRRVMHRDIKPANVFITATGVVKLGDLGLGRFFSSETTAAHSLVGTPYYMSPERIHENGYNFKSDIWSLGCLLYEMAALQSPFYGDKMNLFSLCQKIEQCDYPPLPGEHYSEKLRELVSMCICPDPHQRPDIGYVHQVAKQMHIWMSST
Test [6] deals with Aurora kinase B (Homo sapiens, UniProt Q96GD4). As to the kind of experiment: Inhibition of aurora-B (unknown origin).
Sequence of Aurora kinase B (Q96GD4 whole entry): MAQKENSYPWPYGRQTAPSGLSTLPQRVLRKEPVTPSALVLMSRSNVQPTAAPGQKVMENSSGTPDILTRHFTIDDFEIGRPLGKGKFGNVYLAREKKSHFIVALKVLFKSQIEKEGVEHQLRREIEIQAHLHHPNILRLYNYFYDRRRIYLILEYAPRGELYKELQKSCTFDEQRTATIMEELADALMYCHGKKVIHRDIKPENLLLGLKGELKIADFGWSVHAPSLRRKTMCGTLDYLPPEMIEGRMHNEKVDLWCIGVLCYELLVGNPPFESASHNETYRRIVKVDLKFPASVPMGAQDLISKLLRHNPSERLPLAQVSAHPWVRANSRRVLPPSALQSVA
Test [7] addresses ALK tyrosine kinase receptor (Homo sapiens, UniProt Q9UM73). As to the kind of experiment: Inhibition of ALK (unknown origin).
Test [8] deals with Proto-oncogene tyrosine-protein kinase Src (Homo sapiens, UniProt P12931). The test can be described thus: Inhibition of SRC (unknown origin).
Test [9] addresses Dual specificity mitogen-activated protein kinase kinase 1 (Homo sapiens, UniProt Q02750). The test can be described thus: Inhibition of wild type MEK1 (unknown origin).
Test [10] concerns the target Focal adhesion kinase 1 (Homo sapiens, UniProt Q05397). The test can be described thus: Inhibition of FAK (unknown origin).
The target of test [11] is RAC-alpha serine/threonine-protein kinase (Homo sapiens, UniProt P31749). As to the kind of experiment: Inhibition of AKT1 (unknown origin).
Sequence of RAC-alpha serine/threonine-protein kinase (P31749 whole entry): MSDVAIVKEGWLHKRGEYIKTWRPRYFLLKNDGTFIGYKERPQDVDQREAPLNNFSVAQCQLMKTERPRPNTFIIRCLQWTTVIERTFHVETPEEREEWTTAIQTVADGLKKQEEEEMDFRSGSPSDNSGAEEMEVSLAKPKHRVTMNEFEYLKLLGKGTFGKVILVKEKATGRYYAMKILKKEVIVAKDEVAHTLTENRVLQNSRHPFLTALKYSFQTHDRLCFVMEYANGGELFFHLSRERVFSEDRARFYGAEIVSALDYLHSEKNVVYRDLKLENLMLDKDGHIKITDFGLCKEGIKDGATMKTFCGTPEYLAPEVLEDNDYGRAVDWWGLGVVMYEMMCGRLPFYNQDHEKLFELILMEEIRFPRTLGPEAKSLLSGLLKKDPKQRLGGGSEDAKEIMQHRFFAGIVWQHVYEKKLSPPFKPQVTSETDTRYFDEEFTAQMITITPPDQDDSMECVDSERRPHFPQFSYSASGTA
The target of test [12] is Hepatocyte growth factor receptor (Homo sapiens, UniProt P08581). The test can be described thus: Inhibition of wild type MET (unknown origin).
The target in test [13] is T3, Serine/threonine-protein kinase Nek2 (Homo sapiens, UniProt P51955).
T3 sequence (P51955 whole entry): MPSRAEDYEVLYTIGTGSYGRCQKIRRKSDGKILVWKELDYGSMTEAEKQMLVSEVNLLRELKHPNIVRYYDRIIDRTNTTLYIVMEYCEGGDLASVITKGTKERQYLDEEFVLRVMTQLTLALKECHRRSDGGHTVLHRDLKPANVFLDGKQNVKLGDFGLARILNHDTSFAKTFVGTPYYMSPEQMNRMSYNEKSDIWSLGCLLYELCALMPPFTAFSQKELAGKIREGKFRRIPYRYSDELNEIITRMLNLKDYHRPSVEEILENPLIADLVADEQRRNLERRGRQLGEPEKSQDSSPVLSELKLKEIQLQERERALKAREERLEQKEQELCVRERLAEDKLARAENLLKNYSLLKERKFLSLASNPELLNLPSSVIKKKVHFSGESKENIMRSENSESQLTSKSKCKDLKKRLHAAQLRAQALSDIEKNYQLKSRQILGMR
As to the kind of experiment: Inhibition of NEK2 (unknown origin).

The target of test [14] is Serine/threonine-protein kinase PLK1 (Homo sapiens, UniProt P53350). As to the kind of experiment: Inhibition of PLK1 (unknown origin).
The target in test [15] is Serine/threonine-protein kinase pim-1 (Homo sapiens, UniProt P11309). The test can be described thus: Inhibition of PIM1 (unknown origin).
Sequence of Serine/threonine-protein kinase pim-1 (P11309 whole entry): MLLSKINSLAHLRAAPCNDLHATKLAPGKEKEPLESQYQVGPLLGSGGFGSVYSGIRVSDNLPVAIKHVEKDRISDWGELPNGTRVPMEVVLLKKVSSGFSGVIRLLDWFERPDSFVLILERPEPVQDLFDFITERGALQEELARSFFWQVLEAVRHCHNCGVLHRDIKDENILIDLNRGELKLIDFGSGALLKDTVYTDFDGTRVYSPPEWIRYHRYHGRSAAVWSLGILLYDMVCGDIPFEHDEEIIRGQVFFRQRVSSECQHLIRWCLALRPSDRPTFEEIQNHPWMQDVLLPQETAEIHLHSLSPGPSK
The target of test [16] is Vascular endothelial growth factor receptor 2 (Homo sapiens, UniProt P35968). As to the kind of experiment: Inhibition of VEGFR2 (unknown origin).
Sequence of Vascular endothelial growth factor receptor 2 (P35968 whole entry): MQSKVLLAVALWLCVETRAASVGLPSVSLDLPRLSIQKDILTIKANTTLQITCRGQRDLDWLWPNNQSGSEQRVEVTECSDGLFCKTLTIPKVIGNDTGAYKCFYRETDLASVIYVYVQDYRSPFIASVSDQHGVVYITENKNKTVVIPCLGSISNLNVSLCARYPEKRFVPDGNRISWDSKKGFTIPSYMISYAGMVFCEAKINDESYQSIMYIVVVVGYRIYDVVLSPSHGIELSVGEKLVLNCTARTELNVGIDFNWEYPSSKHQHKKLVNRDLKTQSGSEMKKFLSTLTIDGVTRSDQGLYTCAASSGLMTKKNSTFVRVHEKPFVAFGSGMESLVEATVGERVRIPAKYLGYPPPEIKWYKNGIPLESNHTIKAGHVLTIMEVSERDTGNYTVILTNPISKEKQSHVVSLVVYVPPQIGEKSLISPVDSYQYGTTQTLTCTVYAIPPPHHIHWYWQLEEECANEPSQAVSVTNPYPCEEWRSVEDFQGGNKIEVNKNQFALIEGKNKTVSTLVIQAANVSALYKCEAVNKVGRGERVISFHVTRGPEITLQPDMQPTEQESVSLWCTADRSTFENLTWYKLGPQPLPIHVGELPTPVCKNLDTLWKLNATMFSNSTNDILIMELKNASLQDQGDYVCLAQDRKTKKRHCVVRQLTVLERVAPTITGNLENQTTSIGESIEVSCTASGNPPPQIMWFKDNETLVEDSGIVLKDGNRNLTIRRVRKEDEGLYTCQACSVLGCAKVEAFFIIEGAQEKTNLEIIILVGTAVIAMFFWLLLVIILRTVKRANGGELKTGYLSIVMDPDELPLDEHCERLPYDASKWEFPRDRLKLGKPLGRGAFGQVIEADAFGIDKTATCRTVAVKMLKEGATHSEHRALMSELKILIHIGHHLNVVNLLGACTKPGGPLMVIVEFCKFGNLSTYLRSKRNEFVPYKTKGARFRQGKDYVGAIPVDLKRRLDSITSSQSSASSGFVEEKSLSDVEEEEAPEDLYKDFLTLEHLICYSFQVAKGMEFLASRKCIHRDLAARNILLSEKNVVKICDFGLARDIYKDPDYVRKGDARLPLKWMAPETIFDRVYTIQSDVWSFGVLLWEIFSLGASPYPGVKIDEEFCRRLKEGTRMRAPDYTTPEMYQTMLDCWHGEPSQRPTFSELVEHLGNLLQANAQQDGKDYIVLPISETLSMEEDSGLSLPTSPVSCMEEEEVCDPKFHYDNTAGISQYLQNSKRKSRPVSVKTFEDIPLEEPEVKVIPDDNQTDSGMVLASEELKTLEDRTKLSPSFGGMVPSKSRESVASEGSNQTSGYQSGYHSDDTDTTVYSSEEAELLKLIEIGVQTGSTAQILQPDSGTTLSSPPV

pIC50: −log10 of the molar value. Bounds are passed on as bounds.

Sequence of Dual specificity mitogen-activated protein kinase kinase 1 (Q02750 whole entry): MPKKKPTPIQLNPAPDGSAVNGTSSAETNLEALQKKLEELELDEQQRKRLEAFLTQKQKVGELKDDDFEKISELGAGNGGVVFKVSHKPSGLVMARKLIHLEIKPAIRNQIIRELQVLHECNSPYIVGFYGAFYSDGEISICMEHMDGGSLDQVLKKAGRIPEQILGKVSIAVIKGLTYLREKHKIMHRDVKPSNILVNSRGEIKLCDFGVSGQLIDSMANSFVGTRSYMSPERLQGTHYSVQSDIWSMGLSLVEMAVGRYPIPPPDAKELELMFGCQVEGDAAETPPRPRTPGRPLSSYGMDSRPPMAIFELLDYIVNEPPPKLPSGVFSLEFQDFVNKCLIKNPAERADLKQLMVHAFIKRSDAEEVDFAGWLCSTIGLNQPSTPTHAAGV
Sequence of ALK tyrosine kinase receptor (Q9UM73 whole entry): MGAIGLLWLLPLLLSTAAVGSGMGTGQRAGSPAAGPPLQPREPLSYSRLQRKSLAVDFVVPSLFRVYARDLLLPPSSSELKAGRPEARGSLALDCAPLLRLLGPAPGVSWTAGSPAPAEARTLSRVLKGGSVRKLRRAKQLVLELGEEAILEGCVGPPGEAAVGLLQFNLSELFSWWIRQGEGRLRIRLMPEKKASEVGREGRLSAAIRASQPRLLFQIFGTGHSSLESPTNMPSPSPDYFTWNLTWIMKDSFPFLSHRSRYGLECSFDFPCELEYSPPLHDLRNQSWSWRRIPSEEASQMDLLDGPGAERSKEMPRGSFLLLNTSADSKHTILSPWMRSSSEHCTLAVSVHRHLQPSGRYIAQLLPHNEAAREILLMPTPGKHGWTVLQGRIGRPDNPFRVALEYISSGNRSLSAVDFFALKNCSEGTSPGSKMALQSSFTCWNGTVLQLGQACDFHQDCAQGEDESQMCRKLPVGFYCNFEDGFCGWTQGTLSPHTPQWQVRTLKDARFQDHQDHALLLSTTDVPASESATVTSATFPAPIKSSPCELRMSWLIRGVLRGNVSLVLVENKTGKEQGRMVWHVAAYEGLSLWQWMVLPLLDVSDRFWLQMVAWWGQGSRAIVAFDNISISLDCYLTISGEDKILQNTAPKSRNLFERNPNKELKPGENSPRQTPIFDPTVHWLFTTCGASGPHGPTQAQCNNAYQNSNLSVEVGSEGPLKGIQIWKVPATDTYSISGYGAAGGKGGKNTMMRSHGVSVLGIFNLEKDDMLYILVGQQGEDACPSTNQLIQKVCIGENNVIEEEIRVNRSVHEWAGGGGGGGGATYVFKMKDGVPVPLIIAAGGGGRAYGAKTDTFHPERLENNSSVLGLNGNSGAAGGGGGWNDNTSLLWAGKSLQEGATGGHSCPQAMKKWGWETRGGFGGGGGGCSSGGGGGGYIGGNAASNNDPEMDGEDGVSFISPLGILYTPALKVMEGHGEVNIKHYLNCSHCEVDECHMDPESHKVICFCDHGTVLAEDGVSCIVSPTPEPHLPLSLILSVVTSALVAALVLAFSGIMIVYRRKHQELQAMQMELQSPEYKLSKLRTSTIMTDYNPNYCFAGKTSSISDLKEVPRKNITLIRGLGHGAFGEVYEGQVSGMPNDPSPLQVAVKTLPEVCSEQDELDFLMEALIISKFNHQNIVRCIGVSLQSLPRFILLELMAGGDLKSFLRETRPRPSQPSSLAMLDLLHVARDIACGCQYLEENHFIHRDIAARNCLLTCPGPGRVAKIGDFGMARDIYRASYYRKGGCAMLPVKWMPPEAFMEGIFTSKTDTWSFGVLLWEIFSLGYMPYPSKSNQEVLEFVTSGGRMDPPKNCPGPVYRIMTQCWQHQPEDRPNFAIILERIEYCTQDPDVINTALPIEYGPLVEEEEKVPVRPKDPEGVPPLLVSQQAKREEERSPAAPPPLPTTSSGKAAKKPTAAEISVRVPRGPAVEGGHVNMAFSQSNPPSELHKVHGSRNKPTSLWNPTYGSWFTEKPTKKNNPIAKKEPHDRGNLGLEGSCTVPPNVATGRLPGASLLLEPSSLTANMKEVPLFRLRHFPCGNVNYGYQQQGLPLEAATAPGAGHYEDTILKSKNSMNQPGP

For `O=c1c(O)c(-c2ccc(O)c(O)c2)oc2cc(O)cc(O)c12` [QUERCETIN], the pIC50 is 5.29 in test [1]; 6.52 in [2]; 6.02 in test [3]; 5.24 in [4]; 5.37 in test [5]; 6.04 in test [6]. The pIC50 is 5.48 in [7]; 6.92 in test [8]; less than 5.00 in test [9]; 5.92 in [10]; 5.27 in test [11]; 6.24 in test [12]. Also, the pIC50 in [13] was 5.24.
Consider `Cc1c(O)c(O)c(O)c2c1COC2=O`, for which the pIC50 in [1] is 5.00; in test [2], 6.25; in test [3], 5.61; in [4] it was 4.73; in test [5] it was 4.87; in test [6] it was 5.06. The pIC50 in test [7] is 5.30; in [8], 5.45; in test [9], less than 4.00; in test [10], 5.12; in test [11], 4.63; in [14], 4.93. In addition, the pIC50 was 4.67 in test [15], 5.22 in [16], 5.06 in test [12] and 5.18 in test [13].
In the case of `COCc1c(C)c(O)c(O)c(O)c1C=O`, the pIC50 in test [1] was less than 4.52; in test [2], 5.46; in test [3], 4.96; in test [4] it was less than 4.52; in test [5], less than 4.52; in [6], 4.69. In addition, the pIC50 was 5.03 in test [7]; 4.70 in [8]; less than 4.52 in test [9]; 4.69 in [10]; less than 4.52 in test [11]; less than 4.52 in [14]. Moreover, the pIC50 in [15], in test [16], in [12] and in test [13] was less than 4.52 in each case.
Consider `COC1OC(=O)c2c(O)c(O)c(O)c(C)c21` (racemic), for which the pIC50 in [1] is 4.53; in test [2], 5.69; in test [3] it was 5.19; in test [4], less than 4.52; in test [5] it was less than 4.52; in test [6], 4.65. Moreover, the negative logarithm of the IC50 (pIC50) in test [7] was 5.01; in test [8], 4.90; in test [9], less than 4.52; in [10], 4.79; in [11] it was less than 4.52; in test [14], less than 4.52. For the same compound, the pIC50 in test [15] was less than 4.52; in test [16], 4.58; in test [12], 5.02; in test [13] it was 4.93.

The values are drawn from ChEMBL document CHEMBL3102702, “Protein kinase and HDAC inhibitors from the endophytic fungus Epicoccum nigrum” (J Nat Prod, 2014).
